Assay results reported in PubChem BioAssay AID857 (Vanderbilt High Throughput Screening Facility, 2007).
Activity calls are given as the source filed them.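 The calls were made as follows: active = a full or partial dose-response curve in at least two of three replicate runs; inactive = the rest.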

Biological target: D(1B) dopamine receptor (Homo sapiens) (UniProt P21918)
Test: D5 receptor allosteric modulators, concentration-response – cell-based, HEK293, CRE-luciferase, luminescence, EC30 dopamine, selectivity assay for D1 allosteric modulator project, dose response (AID 857);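 also: HEK 293 cells expressing human D5 with a CRE-driven luciferase reporter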

Chain of D(1B) dopamine receptor (Homo sapiens) (P21918 whole entry, looked up): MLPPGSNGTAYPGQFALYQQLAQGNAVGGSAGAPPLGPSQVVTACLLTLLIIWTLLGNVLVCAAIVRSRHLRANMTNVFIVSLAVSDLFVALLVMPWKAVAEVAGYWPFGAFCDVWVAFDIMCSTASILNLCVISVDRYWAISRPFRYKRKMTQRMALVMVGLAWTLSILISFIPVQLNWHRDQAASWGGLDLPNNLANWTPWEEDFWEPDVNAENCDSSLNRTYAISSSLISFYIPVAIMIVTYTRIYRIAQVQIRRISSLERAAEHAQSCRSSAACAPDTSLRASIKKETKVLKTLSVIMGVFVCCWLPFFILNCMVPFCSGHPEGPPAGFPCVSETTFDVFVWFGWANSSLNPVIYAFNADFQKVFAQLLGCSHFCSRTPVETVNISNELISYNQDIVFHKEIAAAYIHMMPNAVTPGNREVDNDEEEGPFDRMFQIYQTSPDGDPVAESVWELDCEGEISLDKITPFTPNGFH

Row | outcome | EC50 [nM] | SMILES
1 | inactive |  | CCOC(=O)c1c(NC(=O)CSc2nnc(CN3CCOCC3)n2C)sc2c1CCCC2
2 | inactive |  | CCCn1c(=O)c2ccccc2n2c(SCc3nc4ccccc4s3)nnc12
3 | inactive |  | Cc1ccc(OCCN2C(=O)OC(C)(C)C2(C)O)cc1 (centres undefined)
4 | inactive |  | CCCCCn1c(SCC(=O)OC)nc2c1c(=O)[nH]c(=O)n2C
5 | inactive |  | CCOC(=O)c1[nH]c2ccccc2c1NC(=O)C(C)(C)C
6 | inactive |  | CC(C)Oc1ccccc1C1CC(=O)Nc2cc3c(cc21)OCCO3 (centres undefined)
7 | inactive |  | COC(=O)c1ccc(COc2nc(C)cc(C)c2C#N)o1
8 | inactive |  | CCOC(=O)c1oc2ccc(Br)cc2c1NC(=O)CN1CCN(C)CC1
9 | inactive |  | Cc1cc(C)nc(SCC(=O)Nc2ncc3c(n2)CC(C)(C)CC3=O)n1
10 | inactive |  | CCOc1ccc(CC(=O)Nc2c(C(N)=O)oc3ccccc23)cc1OCC
11 | inactive |  | O=c1cc(-c2ccccc2)c2c([nH]1)CCCC2
12 | inactive |  | N#CCSc1ncnc2sc3c(c12)CCC3
13 | inactive |  | c1ccc(-c2nc3nonc3nc2-c2ccccc2)cc1
14 | inactive |  | Nc1nc(CN2CCN(c3ccccc3)CC2)nc(N2CCCc3ccccc32)n1
15 |  | 661 | COc1ccc(Cl)cc1C(=O)CSc1nnnn1C1CCCC1
16 | inactive |  | Cc1cc(=O)n(CC=C(Cl)Cl)c2ccccc12
17 | inactive |  | CCOC(=O)c1nn(-c2ccccc2C)c(=O)c(C#N)c1C
18 | inactive |  | Cc1ccc(-c2nc3ncccn3c2NC(=O)C2CC2)cc1
19 | inactive |  | Cn1c(SCc2ccon2)nc2ccccc2c1=O
20 | inactive |  | COc1ccc(S(=O)(=O)N(C)c2ccc(C(=O)N3CCOCC3)cc2)cc1OC
21 | inactive |  | CC1(C)CC(=O)C2=C(C1)OC(N)=C(C#N)C2c1cccc(OC(=O)c2ccco2)c1 (centres undefined)
22 | inactive |  | Cc1c(C)c2ccc(OC3CCCCC3=O)cc2oc1=O (centres undefined)

Row | outcome | EC50 [nM] | SMILES
23 | inactive |  | COc1ccc(OC)c(C(=O)COC(=O)C2CC3CCCC(C2)C3=O)c1 (centres undefined)
24 | inactive |  | N#CC1=C(N)Oc2nc(-c3ccccc3)[nH]c2C1c1cccnc1 (centres undefined)
25 | inactive |  | CCSc1nc(-c2ccco2)ccc1C#N
26 | inactive |  | CCNc1nc(NC(C)(C)C)nc(N(CC)n2cnnc2)n1
27 | inactive |  | C=CCSc1nnc2n(-c3ccccc3OC)c(=O)c3c4c(sc3n12)CCC4
28 | inactive |  | Cc1cc(=O)c2n(Cc3ccc(Cl)cc3)nc[n+]2[nH]1
29 | inactive |  | COC(=O)c1ccc(CSc2nc3c(cnn3-c3ccc(F)cc3)c(=O)[nH]2)o1
30 | inactive |  | CSc1nc2oc3c(c2c2nncn12)CC(C)(C)SC3
31 | inactive |  | COc1ccc(CN(C2CCCC2)S(=O)(=O)c2ccc(-n3cnnn3)cc2)cc1OC
32 | inactive |  | Cc1cc2cc(CN(CCN3CCOCC3)C(=O)Nc3ccccc3F)c(=O)[nH]c2cc1C
33 | inactive |  | CCOC(=O)CN(C(=O)CSc1nnc(-c2ccc(OC)c(OC)c2)o1)c1ccc(F)cc1
34 | inactive |  | CCOC(=O)c1cnn(-c2cccc(Cl)c2)c1N
35 | inactive |  | N#Cc1cc2ccccc2nc1SCC(=O)Nc1ccc(S(=O)(=O)N2CCCC2)cc1
36 | inactive |  | CCCCSc1nc2c(cnn2-c2ccc(F)cc2)c(=O)[nH]1
37 | inactive |  | COc1ccc2c(C(F)(F)F)cc(=O)oc2c1C
38 | inactive |  | COc1ccc(CCNS(=O)(=O)c2ccc3c(c2)OCCO3)cc1OC
39 | inactive |  | CCn1nc(C(=O)NC2=NCCS2)c2ccccc2c1=O
40 | inactive |  | CCc1nnc(NC(=O)CSc2ncc(-c3ccccc3)n2CC)s1
41 | inactive |  | O=C1C(Cl)=C(NCC2CCCO2)C(=O)N1C1CCCCC1 (centres undefined)
42 | inactive |  | CCOC(=O)N1CCN(C(=O)CCCn2c(=S)[nH]c3ccccc3c2=O)CC1
43 | inactive |  | O=C1COc2ccc(C(=O)c3ccccc3)cc2CN1
44 | inactive |  | CC1(C)Cc2c(C#N)c(N3CCCC3)nc(-c3ccco3)c2CO1
